This data set has as its system patients with schizophrenia in the acute exacerbation phase. The experiment in a line: First stage phase II clinical trial: extrapyramidal symptom rating scales (AIMS, BAS, SAS). In kind it is in vivo, human. The conditions noted are these: for SAS (parkinsonism) score change, Average (SD) / BAS Global score (akathisia) change, Average (SD) / AIMS (dyskinesia) score change, Average (SD): n = 44-47. The method, then:
According to the procedures as shown in Table 1 as described below, the placebo-controlled double blind experiment was done on 149 patients with schizophrenia in the acute exacerbation phase at 15 facilities in USA. The efficacy and safeness were studied when SM-13496 at a dose of 40 mg or 120 mg, or a placebo was orally administered once a day for 6 weeks after placebo washout.
As is shown in Table 7, among the adverse events, the main side effects, a relationship of which to the SM-13496 cannot be denied, was suppression, nausea, akathisia, free-floating vertigo (excluding rotatory vertigo), sleepiness, headache. The occurrence of dystonic reaction was low (less than 4%) in the SM-13496-treated groups.

The structures appear in SMILES notation. Structures can show the parent of a compound that is named as a salt.

Turning to `O=C1[C@@H]2[C@@H]3CC[C@@H](C3)[C@@H]2C(=O)N1C[C@@H]1CCCC[C@H]1CN1CCN(c2nsc3ccccc23)CC1` [SM-13496, (1R,2S,3R,4S)-N-[(1R,2R)-2-[4-(1,2-benzoisothiazol-3-yl)-1-piperazinyl-methyl]-1-cyclohexylmethyl]-2,3-bicyclo[2.2.1]heptanedicarboximide hydrochloride], the “SAS (parkinsonism) score change, Average (SD)” value by setting is: (40 mg orally once a day for 6 weeks, p 0.588 vs placebo) 0.1 (1.08); (120 mg orally once a day for 6 weeks, p 0.808 vs placebo) 0.1 (1.11). Moreover, the “BAS Global score (akathisia) change, Average (SD)” value by setting is: (40 mg orally once a day for 6 weeks, p 0.687 vs placebo) 0.1 (1.04); (120 mg orally once a day for 6 weeks, p 0.352 vs placebo) 0.4 (0.94). In addition, the “AIMS (dyskinesia) score change, Average (SD)” value reads like this: (40 mg orally once a day for 6 weeks, p 0.978 vs placebo) 0.7 (2.88); (120 mg orally once a day for 6 weeks, p 0.467 vs placebo) 0.2 (2.21). Further, the “Changes in AIMS, BAS, SAS score between the treated groups” value (40 mg, 120 mg and placebo groups) is listed as “no significant difference”. In addition, where the note is “SM-13496-treated groups”, the “Ratio of the patients requiring benztropine” value came out at 24%.

The values are drawn from US20180051017A1, “AGENT FOR TREATMENT OF SCHIZOPHRENIA” (Sumitomo Dainippon Pharma Co., Ltd., priority 2002, published 2018).
